pIC50: −log10 of the molar value. Calls of active or inactive are those of the source. The rule behind the calls is not given here.
Legend:
HPAF-II [1] = assay: Downregulation of phosphorylated ERK expression in human HPAF-II cells at 0.1 to 1 uM incubated for 48 hrs by Western blot analysis; type: functional, cell-based; conditions: dose 0.1-1 µM
HPAF-II [2] = assay: Induction of apoptosis in human HPAF-II cells assessed as increase in cleaved PARP level at 0.1 to 1 uM incubated for 48 hrs by Western blot analysis; type: functional, cell-based; conditions: dose 0.1-1 µM
EOL1 = assay: Anticancer activity against human EOL1 cells incubated for 72 hrs; type: functional, cell-based
[3] = Toxicity in nude Balb/cA mouse xenografted with human HPAF-II cells assessed as body weight loss at 15 mg/kg, ip qd measured for 12 days; type: organism-based; conditions: in vivo, 288 h, time 12 day
[4] = AUClast in ICR mouse at 10 mg/kg, po; type: ADME, organism-based; conditions: in vivo
[5] = AUC (infinity) in ICR mouse at 10 mg/kg, po; type: ADME, organism-based; conditions: in vivo
HPAF-II [6] = assay: Antitumor activity against human HPAF-II cells measured after 72 hrs; type: functional, cell-based
NCI-H23 [7] = assay: Induction of apoptosis in human NCI-H23 cells assessed as early apoptotic cells at 10 uM incubated for 48 hrs by Annexin V-FITC/PI staining based flow cytometry (reference value: 4.17 %); type: functional
HPAF-II [8] = assay: Downregulation of ERK phosphorylation level in human HPAF-II cells harboring siROR-gamma at 0.1 uM by Western blot analysis; type: functional, cell-based
HPAF-II [9] = assay: Induction of apoptosis in human HPAF-II cells assessed as early apoptotic cells at 10 uM incubated for 48 hrs by Annexin V-FITC/PI staining based flow cytometry (reference value: 0.90 %); type: functional
NCI-H23 [10] = assay: Induction of apoptosis in human NCI-H23 cells assessed as viable cells at 1 uM incubated for 48 hrs by Annexin V-FITC/PI staining based flow cytometry (reference value: 92.16 %); type: functional; conditions: read-out: Activity
HPAF-II [11] = assay: Anticancer activity against human HPAF-II cells incubated for 72 hrs; type: functional, cell-based

For `C=C(C)[C@@H]1CC[C@]2(C(=O)NCCCN(C)C)CC[C@]3(C)[C@H](CC[C@@H]4[C@@]5(C)CC[C@H](O)C(C)(C)[C@@H]5CC[C@]43C)[C@@H]12`, the Activity (HPAF-II [1]) was “Active”, the Activity (HPAF-II [2]) was “Active” and the Activity (EOL1) was “Active”. It also gave an Activity [3] of 19%, an AUC(0-t) [4] of 1670 ng·h/mL and an AUC(0-inf) [5] of 2050 ng·h/mL. For the same compound, the pIC50 (HPAF-II [6]) was 7.05, the Activity (NCI-H23 [7]) was 64.02% and the Activity (HPAF-II [8]) was “Active”. For the same compound, the Activity (HPAF-II [9]) was 48.86%, the viability at 1 µM (NCI-H23 [10]) was 12.7% and the Activity (HPAF-II [11]) was “Active”.
